Values quoted from earlier work as cited in US7320786B2, “Photodynamic therapy treatment for eye disease” (Light Sciences Oncology, Inc., priority 2000, dated 2008).

Details: systemically administered photosensitizer, clinical use

For Oc1cccc(-c2c3nc(c(-c4cccc(O)c4)c4ccc([nH]4)c(-c4cccc(O)c4)c4nc(c(-c5cccc(O)c5)c5ccc2[nH]5)CC4)C=C3)c1 [Foscan], the “duration of skin photosensitivity” value is listed as “several”.
In the case of CCOC(=O)C1=Cc2c3nc(cc4nc(cc5[n-]c(cc6[n-]c2c(C)c6CC)c(C)c5CC)C(C)=C4CC)[C@@H](C)[C@]13CC.[Cl-].[Cl-].[Sn] (racemic) [Purlytin], the “duration of skin photosensitivity” value is listed as “several”.
For sodium porfimer [Photophrin], the “duration of skin photosensitivity” value is given as “up to 6 weeks”.
